# Reference: patent US20230406885A1, “CYCLIC PEPTIDES FOR TRAPPING INTERLEUKIN-1 BETA” (MERCK SHARP & DOHME LLC, priority 2022, published 2023)
# Where a SMILES comes first, the peptide text is derived from it. [ ]: non-standard residue; d: D form. Bip(4'-COOH) = N[C@@H](Cc1ccc(-c2ccc(C(=O)O)cc2)cc1)C(=O)O; 1Nal(3S-Me) = C[C@@H](c1cccc2ccccc12)[C@H](N)C(=O)O; Ala(indazol-1-yl) = N[C@@H](Cn1ncc2ccccc21)C(=O)O; Ala(indolin-1-yl) = N[C@@H](CN1CCc2ccccc21)C(=O)O; hPhe(4-CF3) = N[C@@H](CCc1ccc(C(F)(F)F)cc1)C(=O)O; Phe(4-COOH) = N[C@@H](Cc1ccc(C(=O)O)cc1)C(=O)O; h3Pal(5-CN) = N#Cc1cncc(CC[C@H](N)C(=O)O)c1; Pro(4R-NH2) = N[C@H]1CN[C@H](C(=O)O)C1; 1Nal = N[C@@H](Cc1cccc2ccccc12)C(=O)O; AEF = NCCOc1ccc(C[C@H](N)C(=O)O)cc1; hTyr = N[C@@H](CCc1ccc(O)cc1)C(=O)O; 4Pal = N[C@@H](Cc1ccncc1)C(=O)O; dDab = NCC[C@@H](N)C(=O)O; Orn = NCCC[C@H](N)C(=O)O; dNMeA = CN[C@H](C)C(=O)O; Dab = NCC[C@H](N)C(=O)O; Nva = CCC[C@H](N)C(=O)O; Dap = NC[C@H](N)C(=O)O; Aib = CC(C)(N)C(=O)O
# Target: T1, Recombinant human IL-1β (Homo sapiens, UniProt P01584)
# T1 construct: purchased BioLegend 579404
# T1 sequence (P01584 117-269): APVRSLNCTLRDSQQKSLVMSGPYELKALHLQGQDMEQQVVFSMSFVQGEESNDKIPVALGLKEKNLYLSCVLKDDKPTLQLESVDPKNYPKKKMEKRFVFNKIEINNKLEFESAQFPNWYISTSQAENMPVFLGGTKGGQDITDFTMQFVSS
# Test: IL-6 assay in MRC5 cells: inhibition of IL-1β induced IL-6 secretion (AlphaLISA)
# Format: cell-based
# Conditions: inhibition of IL-1β induced IL-6 secretion in MRC5 cells; IL-1β pre-incubated 1 hour with compound; read-out: MRC5 IC50
# In short: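 IL-1β at 2×EC80 in seeding medium (EMEM, 0.025% BSA) preincubated 1 h at ambient temperature with compound, then 3000 MRC5 cells/well added and incubated overnight at 37 °C, 5% CO2. IL-6 in conditioned medium quantified by AlphaLISA; IC50 from 4-parameter logistic fit.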
row,Compound,IC50
1,CC(=O)NCCOc1ccc(C[C@@H]2NC(=O)[C@H](CCc3cncc(C#N)c3)NC(=O)[C@@H](CCN)NC(=O)CNC(=O)[C@H](Cn3ncc4ccccc43)NC(=O)[C@H](Cc3ccc(-c4ccc(C(=O)O)cc4)cc3)NC(=O)CNC(=O)[C@@H](C)N(C)C(=O)[C@H](CC(=O)O)NC(=O)[C@H]([C@@H](C)c3cccc4ccccc34)NC(=O)[C@@H]3C[C@@H](N)CN3C(=O)CNC(=O)[C@H](Cc3ccc(C(=O)O)cc3)NC(=O)[C@H](Cc3c[nH]c4ccccc34)NC2=O)cc1 [Example 90] (cyclo([AEF](Ac)W[Phe(4-COOH)]G[Pro(4R-NH2)][1Nal(3S-Me)]D[dNMeA]G[Bip(4'-COOH)][Ala(indazol-1-yl)]G[dDab][h3Pal(5-CN)])),0.0507 nM
2,CC(=O)NCCOc1ccc(C[C@@H]2NC(=O)[C@H](CCc3cncc(C#N)c3)NC(=O)[C@@H](CCN)NC(=O)CNC(=O)[C@H](CN3CCc4ccccc43)NC(=O)[C@H](Cc3ccc(-c4ccc(C(=O)O)cc4)cc3)NC(=O)CNC(=O)[C@@H](C)N(C)C(=O)[C@H](CC(=O)O)NC(=O)[C@H]([C@@H](C)c3cccc4ccccc34)NC(=O)[C@@H]3C[C@@H](N)CN3C(=O)CNC(=O)[C@H](Cc3ccc(C(=O)O)cc3)NC(=O)[C@H](Cc3c[nH]c4ccccc34)NC2=O)cc1 [Example 91] (cyclo([AEF](Ac)W[Phe(4-COOH)]G[Pro(4R-NH2)][1Nal(3S-Me)]D[dNMeA]G[Bip(4'-COOH)][Ala(indolin-1-yl)]G[dDab][h3Pal(5-CN)])),0.0234 nM
3,CC(=O)NCCOc1ccc(C[C@@H]2NC(=O)CNC(=O)C(C)(C)NC(=O)[C@H](CCN)NC(=O)[C@H](Cc3cccc4ccccc34)NC(=O)[C@H](Cc3ccc(-c4ccc(C(=O)O)cc4)cc3)NC(=O)CNC(=O)[C@@H](C)N(C)C(=O)[C@H](CC(=O)O)NC(=O)[C@H]([C@@H](C)c3cccc4ccccc34)NC(=O)[C@@H]3C[C@@H](N)CN3C(=O)CNC(=O)[C@H](Cc3ccc(C(=O)O)cc3)NC(=O)[C@H](Cc3c[nH]c4ccccc34)NC2=O)cc1 [Example 92] (cyclo([AEF](Ac)W[Phe(4-COOH)]G[Pro(4R-NH2)][1Nal(3S-Me)]D[dNMeA]G[Bip(4'-COOH)][1Nal][Dab][Aib]G)),0.457 nM
4,CC(=O)NCCOc1ccc(C[C@@H]2NC(=O)[C@H](CCc3ccc(O)cc3)NC(=O)C(C)(C)NC(=O)[C@H](CCN)NC(=O)[C@H](Cc3cccc4ccccc34)NC(=O)[C@H](Cc3ccc(-c4ccc(C(=O)O)cc4)cc3)NC(=O)CNC(=O)[C@@H](C)N(C)C(=O)[C@H](CC(=O)O)NC(=O)[C@H]([C@@H](C)c3cccc4ccccc34)NC(=O)[C@@H]3C[C@@H](N)CN3C(=O)CNC(=O)[C@H](Cc3ccc(C(=O)O)cc3)NC(=O)[C@H](Cc3c[nH]c4ccccc34)NC2=O)cc1 [Example 93] (cyclo([AEF](Ac)W[Phe(4-COOH)]G[Pro(4R-NH2)][1Nal(3S-Me)]D[dNMeA]G[Bip(4'-COOH)][1Nal][Dab][Aib][hTyr])),0.12 nM
5,CC(=O)NCCOc1ccc(C[C@@H]2NC(=O)[C@H](CCc3cncc(C#N)c3)NC(=O)C(C)(C)NC(=O)[C@H](CN)NC(=O)[C@H](Cc3cccc4ccccc34)NC(=O)[C@H](Cc3ccc(-c4ccc(C(=O)O)cc4)cc3)NC(=O)CNC(=O)[C@@H](C)N(C)C(=O)[C@H](CC(=O)O)NC(=O)[C@H]([C@@H](C)c3cccc4ccccc34)NC(=O)[C@@H]3C[C@@H](N)CN3C(=O)CNC(=O)[C@H](Cc3ccc(C(=O)O)cc3)NC(=O)[C@H](Cc3c[nH]c4ccccc34)NC2=O)cc1 [Example 94] (cyclo([AEF](Ac)W[Phe(4-COOH)]G[Pro(4R-NH2)][1Nal(3S-Me)]D[dNMeA]G[Bip(4'-COOH)][1Nal][Dap][Aib][h3Pal(5-CN)])),0.0639 nM
6,CC(=O)NCCOc1ccc(C[C@@H]2NC(=O)CNC(=O)C(C)(C)NC(=O)[C@H](CC(C)C)NC(=O)[C@H](Cc3cccc4ccccc34)NC(=O)[C@H](Cc3ccc(-c4ccc(C(=O)O)cc4)cc3)NC(=O)CNC(=O)[C@@H](C)N(C)C(=O)[C@H](CC(=O)O)NC(=O)[C@H]([C@@H](C)c3cccc4ccccc34)NC(=O)[C@@H]3C[C@@H](N)CN3C(=O)CNC(=O)[C@H](Cc3ccc(C(=O)O)cc3)NC(=O)[C@H](Cc3c[nH]c4ccccc34)NC2=O)cc1 [Example 95] (cyclo([AEF](Ac)W[Phe(4-COOH)]G[Pro(4R-NH2)][1Nal(3S-Me)]D[dNMeA]G[Bip(4'-COOH)][1Nal]L[Aib]G)),0.422 nM
7,CC(=O)NCCOc1ccc(C[C@@H]2NC(=O)[C@H](C)NC(=O)[C@@H](C)NC(=O)[C@H](CC(C)C)NC(=O)[C@H](Cc3cccc4ccccc34)NC(=O)[C@H](Cc3ccc(-c4ccc(C(=O)O)cc4)cc3)NC(=O)CNC(=O)[C@@H](C)N(C)C(=O)[C@H](CC(=O)O)NC(=O)[C@H]([C@@H](C)c3cccc4ccccc34)NC(=O)[C@@H]3C[C@@H](N)CN3C(=O)CNC(=O)[C@H](Cc3ccc(C(=O)O)cc3)NC(=O)[C@H](Cc3c[nH]c4ccccc34)NC2=O)cc1 [Example 97] (cyclo([AEF](Ac)W[Phe(4-COOH)]G[Pro(4R-NH2)][1Nal(3S-Me)]D[dNMeA]G[Bip(4'-COOH)][1Nal]L[dA]A)),0.295 nM
8,CCC[C@@H]1NC(=O)[C@H](Cc2cccc3ccccc23)NC(=O)[C@H](Cc2ccc(-c3ccc(C(=O)O)cc3)cc2)NC(=O)CNC(=O)[C@@H](C)N(C)C(=O)[C@H](CC(=O)O)NC(=O)[C@H]([C@@H](C)c2cccc3ccccc23)NC(=O)[C@@H]2C[C@@H](N)CN2C(=O)CNC(=O)[C@H](Cc2ccc(C(=O)O)cc2)NC(=O)[C@H](Cc2c[nH]c3ccccc23)NC(=O)[C@H](Cc2ccc(OCCNC(C)=O)cc2)NC(=O)[C@H](C)NC(=O)[C@@H](C)NC1=O [Example 98] (cyclo([AEF](Ac)W[Phe(4-COOH)]G[Pro(4R-NH2)][1Nal(3S-Me)]D[dNMeA]G[Bip(4'-COOH)][1Nal][Nva][dA]A)),0.494 nM
9,CC(=O)NCCOc1ccc(C[C@@H]2NC(=O)[C@H](CCc3ccc(O)cc3)NC(=O)C(C)(C)NC(=O)[C@H](CCCN)NC(=O)[C@H](Cc3cccc4ccccc34)NC(=O)[C@H](Cc3ccc(-c4ccc(C(=O)O)cc4)cc3)NC(=O)CNC(=O)[C@@H](C)N(C)C(=O)[C@H](CC(=O)O)NC(=O)[C@H]([C@@H](C)c3cccc4ccccc34)NC(=O)[C@@H]3C[C@@H](N)CN3C(=O)CNC(=O)[C@H](Cc3ccc(C(=O)O)cc3)NC(=O)[C@H](Cc3c[nH]c4ccccc34)NC2=O)cc1 [Example 99] (cyclo([AEF](Ac)W[Phe(4-COOH)]G[Pro(4R-NH2)][1Nal(3S-Me)]D[dNMeA]G[Bip(4'-COOH)][1Nal][Orn][Aib][hTyr])),0.256 nM
10,CC(=O)NCCOc1ccc(C[C@@H]2NC(=O)[C@H](CCc3ccc(C(F)(F)F)cc3)NC(=O)[C@@H](C)NC(=O)[C@H](CCN)NC(=O)[C@H](Cc3ccncc3)NC(=O)[C@H](Cc3ccc(-c4ccc(C(=O)O)cc4)cc3)NC(=O)CNC(=O)[C@@H](C)N(C)C(=O)[C@H](CC(=O)O)NC(=O)[C@H]([C@@H](C)c3cccc4ccccc34)NC(=O)[C@@H]3C[C@@H](N)CN3C(=O)CNC(=O)[C@H](Cc3ccc(C(=O)O)cc3)NC(=O)[C@H](Cc3c[nH]c4ccccc34)NC2=O)cc1 [Example 100] (cyclo([AEF](Ac)W[Phe(4-COOH)]G[Pro(4R-NH2)][1Nal(3S-Me)]D[dNMeA]G[Bip(4'-COOH)][4Pal][Dab][dA][hPhe(4-CF3)])),0.274 nM
